From PMC10415494, “Ga(III) pyridinecarboxylate complexes: potential analogues of the second generation of therapeutic Ga(III) complexes?” (Journal of Biological Inorganic Chemistry, 2023)
Values after ≈ are worked out from the molar mass of the structure shown.

Key:
[1] = Procedure: The stock solution of HPic and H2Dpic was prepared by dissolving in demineralized water (c(ligand) = 0.02 M). The gallium(III) ion solution was prepared from anhydrous gallium(III) nitrate (c(Ga^3+) = 0.05 M) and was standardized by back titration of excess of EDTA with zinc(II). Decarbonated potassium hydroxide solution (approx. 0.2 M) was used as a titrant that was standardized by potassium hydrogen phthalate (c(KHP) = 0.1 M). Standard inert electrolyte of nitric acid was used in all titrations (c(HNO3) = 0.03 M, I(HNO3/KNO3) = 0.1 M). Potentiometric measurements were carried out using a TitroLine 7000 dosage system with a BlueLine combination electrode (SI Analytics) in a glass vessel (5 mL) thermostated at 25 ± 0.1 °C at an ionic strength I(KNO3) = 0.1 M. Inert atmosphere was ensured by a constant flow of a nitrogen gas. Precise calibration of the electrode was carried out by the titration of 0.03 M HNO3 with 0.2 M KOH in the range –log[H^+] = 1.8–12.0, with the pH-meter yielding E values. The relation between E and –log[H^+] is expressed by Eq. (1) where the term E^0 contains the standard potentials of the electrode and the contribution of inert ions to the liquid-junction potential. The value S corresponds to the Nernstian slope, the value of which should be close to the theoretical value, and j1[H^+] and j2[OH^–] = j2Kw/[H^+] are contributions of the H^+ and OH^– ions, respectively, to the liquid-junction potential. The pKw value was 13.78 in Eq. (1).1 E=E^0-S-logH^++j1H^++j2Kw/H^+
The parameters j1 and j2 cause deviation from linear dependence between E and –log[H^+] only in strongly acidic and strongly alkaline solutions. The picolinic and dipicolinic acid protonation constants were determined with ligand concentration 0.004 M. The stability constants in the Ga-HPic and Ga-H2Dpic binary system were determined by the ligand concentrations 0.004 and the Ga^3+ concentration was 0.004, 0.002 and 0.001 M in dependence on the ligand to metal ratio.
The protonation constants β110, β210 are the concentration constants and are defined by β110 = [HL]/ [H][L], β210 = [H2L]/ [H]^2[L] (pK2 = logβ110, pK1 = logβ210- logβ110); the stability constants are defined by βrqp = [HrLqMp]/[H]^r[L]^q[M]^p. The equilibrium constants were obtained by fitting the titration data with OPIUM [23]. The following hydrolysis constants were used for the calculations: βpr = [Mp(OH)r^3−r][H]^r/[M]^p; log β11 = − 2.74; log β12 = − 7.0; log β13 = − 11.96; log β14 = − 15.52 [24].

[2] = system: Staphylococcus aureus (S. aureus) CCM 3953; assay: Antimicrobial activity, macrodilution method (growth by A590); format: cell-based; conditions: Staphylococcus aureus, CCM3953; positive control; read-out: MIC100 for S. aureus
Procedure: (§1) The antimicrobial activities of gallium(III) complexes GaPic, GaDpic, GaChel, GaCldpic, free ligands (HPic, H2Dpic, H2Chel, H2Cldpic) and positive controls (cefoxitin (C), ampicillin (A) and piperacillin (P)) were evaluated by macrodilution method using G^+ bacteria (Firmicutes) Staphylococcus aureus (S. aureus) CCM 3953 (Czech Collection of Microorganisms), G^− bacteria (γ-proteobacteria) Escherichia coli (E. coli) CCM 3988, Pseudomonas aeruginosa (P. aeruginosa) CCM 1959 (Czech Collection of Microorganisms) and the yeast Candida parapsilosis (C. parapsilosis) ATCC 22019 (American type culture collection). Cultures of bacteria (in Mueller–Hinton broth, MHB) and yeasts (in Sabouraud’s growth medium, SB) were incubated under shaking (250 rpm) at 37 °C. The growth of bacteria and yeasts was evaluated by measuring the absorbance of the growing cultures (A590) until the cultures reached the stationary growth phase. The effects of gallium(III) complexes on the growth of filamentous fungi Rhizopus oryzae (R. oryzae) CCM F-8284, Alternaria alternata (A. alternata) CCM F-128 and Microsporum gypseum (M. gypseum) CCM F-8342 (Czech Collection of Microorganisms) were observed by macrodilution method on solidified potato-dextrose growth medium (PDA). During culturing, the diameters of growing fungal colonies were measured at regular intervals. Briefly, the antimicrobial activity (bacteria and yeasts) gallium(III) complexes/ ligands were added to the microbial culture at the beginning of the cultivation-to the lag phase. Pure gallium(III) complexes/ligands were dissolved in DMSO. The final concentration of DMSO never exceeded 1.0 vol. % neither in control nor treated samples. Concentration of gallium(III) complexes used in experimental work for evaluation of antimicrobial activity was used in the range of 0.05–2 mM, for the free ligands in the range of 0.5–2.0 mM in all experiments. […] The IC50 values were evaluated from toxicity curves. All the obtained results of antimicrobial activity were compared to the activity of Ga(NO3)3.

[3] = system: HeLa (human cervical adenocarcinoma); assay: MTS antiproliferative assay; conditions: read-out: Cytotoxic activity IC50 HeLa; MTS, 72 h of incubation
Procedure: (§2) Cell culture the cell lines A2058 (human metastatic melanoma), BLM (human metastatic melanoma), HCT116 (human colorectal carcinoma), HeLa (human cervical adenocarcinoma), Jurkat (human leukaemic T cell lymphoma). […] Cells were maintained in standard conditions with an atmosphere containing 5% CO2 at 37 °C.
(§3) The antiproliferative activity of Ga(III) complexes GaPic, GaDpic, GaChel, GaCldpic, free ligands (HPic, H2Dpic, H2Chel, H2Cldpic) and cisplatin (cisPt) were evaluated by colorimetric microculture MTS (3-(4,5-dimethylthiazol-2-yl)-5-(3-carboxymethoxyphenyl)-2-(4-sulfophenyl)-2H tetrazolium) assay (Promega, Madison, WI, USA). Cancer and non-cancer cells were seeded at density 5 × 10^3 cells/well in 96-well polystyrene microplates. Twenty-four hours after cell seeding, different concentrations (1.0—100.0 µM) of the compounds were tested. After 72 h of incubation, 10 µL of MTS was added to each well. After an additional 2 h, cell proliferation was evaluated by measuring of absorbance at wavelength 490 nm using the automated Cytation™ 3 Cell Imaging Multi-Mode Reader (Biotek, Winooski, VT, USA). The absorbance of control wells was taken as 100%, and the results were expressed as a percent of untreated control. IC50 values were calculated from MTS analyses.

[4] = system: PaTu 8902 (human pancreatic adenocarcinoma); assay: MTS antiproliferative assay; conditions: read-out: Cytotoxic activity IC50 PaTu 8902; MTS, 72 h of incubation
Procedure: as §2, §3

[5] = system: HCT116 (human colorectal carcinoma); assay: MTS antiproliferative assay; conditions: read-out: Cytotoxic activity IC50 HCT116; MTS, 72 h of incubation
Procedure: as §2, §3

[6] = system: Jurkat (human leukaemic T cell lymphoma); assay: MTS antiproliferative assay; conditions: read-out: Cytotoxic activity IC50 Jurkat; MTS, 72 h of incubation
Procedure: as §2, §3

[7] = system: MDA-MB-231 (human mammary gland adenocarcinoma); assay: MTS antiproliferative assay; conditions: read-out: Cytotoxic activity IC50 MDA-MB-231; MTS, 72 h of incubation
Procedure: as §2, §3

[8] = system: A2058 (human metastatic melanoma); assay: MTS antiproliferative assay; conditions: read-out: Cytotoxic activity IC50 A2058; MTS, 72 h of incubation
Procedure: as §2, §3

[9] = system: human dermal fibroblasts (HDF); assay: MTS antiproliferative assay (non-cancer cells); conditions: read-out: Cytotoxic activity IC50 HDF; MTS, 72 h of incubation
Procedure: as §2, §3

[10] = system: Pseudomonas aeruginosa (P. aeruginosa) CCM 1959; assay: Antimicrobial activity, macrodilution method (growth by A590); format: cell-based; conditions: Pseudomonas aeruginosa, CCM1959; positive control; read-out: MIC100 for P. aeruginosa
Procedure: as §1

Q: Which “stability constant logβ021” value [1] does the source give for `O=C([O-])c1ccccn1.O=C([O-])c1ccccn1.[Ga+3]` [[Ga(Pic)2]^+] here?
A: 16.23(6)

Q: For `O=C([O-])c1ccccn1.O=C([O-])c1ccccn1.O=C([O-])c1ccccn1.[Ga+3]` [[Ga(Pic)3]], which “stability constant logβ031” value [1] is on record?
A: 20.86(2)

Q: For `CO[C@@]1(NC(=O)Cc2cccs2)C(=O)N2C(C(=O)O)=C(COC(N)=O)CS[C@@H]21` [cefoxitin], which MIC [2] is on record?
A: 0.74 µM (≈ 0.316 µg/mL)

Q: For `N.N.[Cl][Pt][Cl]` [cisPt, cisplatin], which IC50 [3] is on record?
A: 35.4 ± 3.4 µM

Q: And the IC50 [4]?
A: 12.9 ± 0.9 µM

Q: What about the IC50 [5] of the same compound?
A: 7.4 ± 0.8 µM

Q: What about the IC50 [6] of the same compound?
A: 6.3 ± 0.5 µM

Q: And the IC50 [7]?
A: 7.1 ± 0.3 µM

Q: What about the IC50 [8] of the same compound?
A: 17.6 ± 1.2 µM

Q: And the IC50 [9]?
A: 40.1 ± 2.8 µM

Q: For `CCN1CCN(C(=O)N[C@@H](C(=O)N[C@@H]2C(=O)N3[C@@H]2SC(C)(C)[C@@H]3C(=O)O)c2ccccc2)C(=O)C1=O` [piperacillin], which MIC [10] is on record?
A: 5.81 µM (≈ 3.01 µg/mL)
